From patent US20090030024A1, “THIAZOLES AS FUNGICIDES” (priority 2005, published 2009)
Marks after values point to notes of the source that are not given here.

Assay: logP determination by retention times (calibration with alkan-2-ones)
Conditions: not given

Row | SMILES | chromatographic logP
1 | Cc1nc(C(F)(F)F)c(-c2ccnc(Nc3ccccc3)n2)s1 [Example 312, 4-[2-methyl-4-(trifluoromethyl)-1,3-thiazol-5-yl]-N-phenylpyrimidine-2-amine] | 3.45
2 | COc1cc(Nc2nccc(-c3sc(C)nc3C)n2)cc(OC)c1 [Example 406, N-(3,5-dimethoxyphenyl)-4-(2,4-dimethyl-1,3-thiazol-5-yl)pyrimidine-2-amine] | 2.64
3 | COCc1nc(C)c(-c2ccnc(Nc3cccc(C(F)(F)F)c3)n2)s1 [Example 299, 4-[2-(methoxymethyl)-4-methyl-1,3-thiazol-5-yl]-N-[3-(trifluoromethyl)phenyl]pyrimidine-2-amine] | 3.41
4 | CSc1nc(C)c(-c2ccnc(Nc3ccc(N(C)C)c(Cl)c3)n2)s1 [Example 61, 2-chloro-N1,N1-dimethyl-N4-{4-[4-methyl-2-(methylthio)-1,3-thiazol-5-yl]pyrimidin-2-yl}benzene-1,4-diamine] | 2.74
5 | COCC(C)Nc1nc(C)c(-c2ccnc(Nc3cccc(O)c3)n2)s1 (centres unmarked) [Example 129, 3-[(4-{2-[(2-methoxy-1-methylethyl)amino]-4-methyl-1,3-thiazol-5-yl}pyrimidin-2-yl)amino]phenol] | 1.53
6 | Cc1nc(C2CC2)sc1-c1ccnc(Nc2ccccc2)n1 [Example 231, 4-(2-cyclopropyl-4-methyl-1,3-thiazol-5-yl)-N-phenylpyrimidine-2-amine] | 3.26
7 | COc1ccc(OC)c(Nc2nccc(-c3sc(C4CC4)nc3C)n2)c1 [Example 221, 4-(2-cyclopropyl-4-methyl-1,3-thiazol-5-yl)-N-(2,5-dimethoxyphenyl)pyrimidine-2-amine] | 3.71
8 | Cc1nc(C(F)(F)F)c(-c2ccnc(Nc3cccc(O)c3)n2)s1 [Example 103, 3-({4-[2-methyl-4-(trifluoromethyl)-1,3-thiazol-5-yl]pyrimidin-2-yl}amino)phenol] | 2.52

Same assay, conditions: * HPLC reversed-phase C18, 40° C., mobile phase 0.1% aqueous formic acid and acetonitrile, linear gradient 10% to 95% acetonitrile

Row | SMILES | logP
9 | Cc1nc(N(C)C)sc1-c1ccnc(Nc2cccc([N+](=O)[O-])c2)n1 [Example 686, 4-[2-(dimethylamine)-4-methyl-1,3-thiazol-5-yl]-N-(3-nitrophenyl)pyrimidine-2-amine] | 2.34*
10 | CN(C)c1nc(C(F)(F)F)c(-c2ccnc(Nc3ccc4c(c3)OC(F)(F)O4)n2)s1 [Example 779, N-(2,2-difluoro-1,3-benzodioxol-5-yl)-4-[2-(dimethylamine)-4-(trifluoromethyl)-1,3-thiazol-5-yl]pyrimidine-2-amine] | 4.72*
11 | CN(C)c1nc(C(F)(F)F)c(-c2ccnc(Nc3cccc(Cl)c3)n2)s1 [Example 695, N-(3-chlorophenyl)-4-[2-(dimethylamine)-4-(trifluoromethyl)-1,3-thiazol-5-yl]pyrimidine-2-amine] | 4.51*
12 | Cc1nc(N(C)C)sc1-c1ccnc(Nc2ccc3c(c2)OC(F)(F)C(F)(F)O3)n1 [Example 774, 4-[2-(dimethylamine)-4-methyl-1,3-thiazol-5-yl]-N-(2,2,3,3-tetrafluoro-2,3-dihydro-1,4-benzodioxin-6-yl)pyrimidine-2-amine] | 3.6*

Same assay, conditions: HPLC, reversed-phase C 18, EEC Directive 79/831 Annex V.A8; method *: 40° C., 0.1% aqueous formic acid and acetonitrile, linear gradient 10% to 95% acetonitrile

Row | SMILES | logP
13 | Cc1nc(NC(C)(C)C)sc1-c1ccnc(Nc2cccc(O)c2)n1 [Example 102, 3-({4-[2-(tert-butylamine)-4-methyl-1,3-thiazol-5-yl]pyrimidin-2-yl}amino)phenol] | 1.82*

Same assay, conditions: logP, * HPLC reversed-phase C18, 40° C., mobile phase 0.1% aqueous formic acid and acetonitrile, linear gradient 10% to 95% acetonitrile

Row | SMILES | chromatographic logP
14 | Clc1ccc(-c2ncc(-c3ccnc(Nc4ccccc4)n3)s2)cc1 [Example 793, 4-[2-(4-chlorophenyl)-1,3-thiazol-5-yl]-N-phenylpyrimidine-2-amine] | 4.85
15 | Cc1nc(NCC2CCCO2)sc1-c1ccnc(Nc2cccc(Cl)c2)n1 (centres unmarked) [Example 443, N-(3-chlorophenyl)-4-{4-methyl-2-[(tetrahydrofuran-2-ylmethyl)amino]-1,3-thiazol-5-yl}pyrimidine-2-amine] | 2.36
16 | COCCNc1nc(C)c(-c2ccnc(Nc3ccccc3)n2)s1 [Example 678, 4-{2-[(2-methoxyethyl)amino]-4-methyl-1,3-thiazol-5-yl}-N-phenylpyrimidine-2-amine] | 1.82
17 | COc1ccc(Nc2nccc(-c3sc(SC)nc3C)n2)cn1 [Example 522, N-(6-methoxypyridin-3-yl)-4-[4-methyl-2-(methylthio)-1,3-thiazol-5-yl]pyrimidine-2-amine] | 2.67
18 | CSc1nc(C)c(-c2ccnc(Nc3ccc(N(C)C)cc3)n2)s1 [Example 524, N,N-dimethyl-N′-{4-[4-methyl-2-(methylthio)-1,3-thiazol-5-yl]pyrimidin-2-yl}benzene-1,4-diamine] | 1.75
19 | COCc1nc(C)c(-c2ccnc(Nc3ccc(Cl)cc3)n2)s1 [Example 465, N-(4-chlorophenyl)-4-[2-(methoxymethyl)-4-methyl-1,3-thiazol-5-yl]pyrimidine-2-amine] | 3.29
20 | CCCc1nc(C)c(-c2ccnc(Nc3cc(OC)c(OC)c(OC)c3)n2)s1 [Example 768, 4-(4-methyl-2-propyl-1,3-thiazol-5-yl)-N-(3,4,5-trimethoxyphenyl)pyrimidine-2-amine] | 2.93
21 | COCc1nc(C)c(-c2ccnc(Nc3ccc(OC)c(Cl)c3)n2)s1 [Example 419, N-(3-chloro-4-methoxyphenyl)-4-[2-(methoxymethyl)-4-methyl-1,3-thiazol-5-yl]pyrimidine-2-amine] | 2.91
22 | CSc1nc(C)c(-c2ccnc(Nc3ccc(F)c(C)c3)n2)s1 [Example 481, N-(4-fluoro-3-methylphenyl)-4-[4-methyl-2-(methylthio)-1,3-thiazol-5-yl]pyrimidine-2-amine] | 3.89
23 | COCCNc1nc(C)c(-c2ccnc(Nc3ccc(OC)c(OC)c3)n2)s1 [Example 800, N-(3,4-dimethoxyphenyl)-4-{2-[(2-methoxyethyl)amino]-4-methyl-1,3-thiazol-5-yl}pyrimidine-2-amine] | 1.55
24 | CCc1nc(C)c(-c2ccnc(N(C(C)=O)c3cccc(C(C)=O)c3)n2)s1 [Example 671, N-(3-acetylphenyl)-N-[4-(2-ethyl-4-methyl-1,3-thiazol-5-yl)pyrimidin-2-yl]acetamide] | 2.23

Same assay, conditions: logP, values marked *: HPLC on reversed-phase C 18, 40° C., mobile phase 0.1% aqueous formic acid and acetonitrile, linear gradient 10% to 95% acetonitrile

Row | SMILES | chromatographic logP
25 | Cc1nc(C(C)C)sc1-c1nc(Nc2cccc(Cl)c2)ncc1Br [Example 922, 5-bromo-N-(3-chlorophenyl)-4-(2-isopropyl-4-methyl-1,3-thiazol-5-yl)pyrimidine-2-amine] | 4.9
26 | Cc1nc(C)c(-c2nc(Nc3cccc(Cl)c3)ncc2Cl)s1 [Example 875, 5-chloro-N-(3-chlorophenyl)-4-(2,4-dimethyl-1,3-thiazol-5-yl)pyrimidine-2-amine] | 3.86
27 | CC(=O)c1ccc(Nc2nccc(-c3sc(C(C)C)nc3C)n2)cc1 [Example 820, 1-(4-{[4-(2-isopropyl-4-methyl-1,3-thiazol-5-yl)pyrimidin-2-yl]amino}phenyl)ethanone] | 3.06
28 | COCCNc1nc(C)c(-c2ccnc(Nc3ccc(C)c(C)c3)n2)s1 [Example 896, N-(3,4-dimethylphenyl)-4-{2-[(2-methoxyethyl)amino]-4-methyl-1,3-thiazol-5-yl}pyrimidine-2-amine] | 2.08
29 | COCCNc1nc(C)c(-c2ccnc(Nc3ccc4c(c3)C(=O)OC4)n2)s1 [Example 890, 6-[(4-{2-[(2-methoxyethyl)amino]4-methyl-1,3-thiazol-5-yl}pyrimidin-2-yl)amino]-2-benzofuran-1(3H)-one] | 1.53
30 | Cc1nc(C(C)(C)C)sc1-c1ccnc(Nc2cccc(Cl)c2)n1 [Example 884, 4-(2-tert-butyl-4-methyl-1,3-thiazol-5-yl)-N-(3-chlorophenyl)pyrimidine-2-amine] | 4.82
31 | COCCNc1nc(C)c(-c2ccnc(Nc3ccc(Cl)cc3)n2)s1 [Example 898, N-(4-chlorophenyl)-4-{2-[(2-methoxyethyl)amino]-4-methyl-1,3-thiazol-5-yl}pyrimidine-2-amine] | 2.24
32 | CCc1nc(C)c(-c2nc(Nc3ccc(Cl)cc3)ncc2Cl)s1 [Example 877, 5-chloro-N-(4-chlorophenyl)-4-(2-ethyl-4-methyl-1,3-thiazol-5-yl)pyrimidine-2-amine] | 4.48
33 | COCCCNc1nc(C)c(-c2ccnc(Nc3cccc([N+](=O)[O-])c3)n2)s1 [Example 865, 4-{2-[(3-methoxypropyl)amino]-4-methyl-1,3-thiazol-5-yl}-N-(3-nitrophenyl)pyrimidine-2-amine] | 2.03
34 | COCCNc1nc(C)c(-c2ccnc(Nc3ccc(F)cc3F)n2)s1 [Example 832, N-(2,4-difluorophenyl)-4-{2-[(2-methoxyethyl)amino]-4-methyl-1,3-thiazol-5-yl}pyrimidine-2-amine] | 1.99
35 | COc1ccc(Nc2nccc(-c3sc(C(C)C)nc3C)n2)cc1OC [Example 819, N-(3,4-dimethoxyphenyl)-4-(2-isopropyl-4-methyl-1,3-thiazol-5-yl)pyrimidine-2-amine] | 2.85
36 | COCC(C)Nc1nc(C)c(-c2ccnc(Nc3ccc(S(N)(=O)=O)cc3)n2)s1 (centres unmarked) [Example 864, 4-[(4-{2-[(2-methoxy-1-methylethyl)amino]-4-methyl-1,3-thiazol-5-yl}pyrimidin-2-yl)amino]benzenesulphonamide] | 1.49
37 | CC(=O)c1ccc(Nc2nccc(-c3sc(C(C)(C)C)nc3C)n2)cc1 [Example 885, 1-(4-{[4-(2-tert-butyl-4-methyl-1,3-thiazol-5-yl)pyrimidin-2-yl]amino}phenyl)ethanone] | 4.22

Same assay, conditions: values marked *: HPLC on reversed-phase C 18, 40° C., mobile phase 0.1% aqueous formic acid and acetonitrile, linear gradient 10% to 95% acetonitrile

Row | SMILES | logP
38 | Cc1nc(N(C)C)sc1-c1ccnc(Nc2ccc(F)cc2)n1 [Example 849, 4-[2-(dimethylamine)-4-methyl-1,3-thiazol-5-yl]-N-(4-fluorophenyl)pyrimidine-2-amine] | 1.99*
